Data taken from article PMC9154796, “Triazoloquinoxalines-based DNA intercalators-Topo II inhibitors: design, synthesis, docking, ADMET and anti-proliferative evaluations” (Journal of Enzyme Inhibition and Medicinal Chemistry, 2022).

What was measured:
HepG2 = assay: MTT colorimetric anti-proliferative assay; conditions: Homo sapiens, HepG2, 72 h, read-out: IC50 HepG2
HCT116 = assay: MTT colorimetric anti-proliferative assay; conditions: Homo sapiens, HCT-116, 72 h, read-out: IC50 HCT116
MCF-7 = assay: MTT colorimetric anti-proliferative assay; conditions: Homo sapiens, MCF7, 72 h, read-out: IC50 MCF-7
DNA = assay: In vitro DNA/methyl green assay (DNA binding); conditions: DNA/methyl green displacement, mean ± SD of three experiments
Source text: The extremely potent 6e, 7b, 7c, 7e and 7g were further assessed for their DNA-binding according to the reported procedure using methyl green dye[21]^,[22]^,[49]. DNA-binding affinities results were presented as IC50 and briefed in Table 3.
Methyl green dye can bind DNA to form coloured DNA/methyl green reversible complex. These complexes at neutral pH are still stable. The methyl green is displaced from DNA upon intercalating agents addition. Colourless carbinol was formed by the addition of H2O to the dye, leading to a dramatic decrease in spectrophotometric absorbance. ΔA value (the difference between DNA/methyl green complex and free cabinol) provides the simplest means for detecting the DNA-binding affinity and relative binding strength. IC50 values were determined using the GraphPadPrism 5.0 software[21]^,[22]^,[49].

human Topo II = human Topo II (Homo sapiens, UniProt P11388); assay: In vitro topoisomerase II inhibitory activity; format: biochemical; conditions: supercoiled pHot1 DNA, mean ± SD of three experiments
human Topo II, sequence (P11388 whole entry): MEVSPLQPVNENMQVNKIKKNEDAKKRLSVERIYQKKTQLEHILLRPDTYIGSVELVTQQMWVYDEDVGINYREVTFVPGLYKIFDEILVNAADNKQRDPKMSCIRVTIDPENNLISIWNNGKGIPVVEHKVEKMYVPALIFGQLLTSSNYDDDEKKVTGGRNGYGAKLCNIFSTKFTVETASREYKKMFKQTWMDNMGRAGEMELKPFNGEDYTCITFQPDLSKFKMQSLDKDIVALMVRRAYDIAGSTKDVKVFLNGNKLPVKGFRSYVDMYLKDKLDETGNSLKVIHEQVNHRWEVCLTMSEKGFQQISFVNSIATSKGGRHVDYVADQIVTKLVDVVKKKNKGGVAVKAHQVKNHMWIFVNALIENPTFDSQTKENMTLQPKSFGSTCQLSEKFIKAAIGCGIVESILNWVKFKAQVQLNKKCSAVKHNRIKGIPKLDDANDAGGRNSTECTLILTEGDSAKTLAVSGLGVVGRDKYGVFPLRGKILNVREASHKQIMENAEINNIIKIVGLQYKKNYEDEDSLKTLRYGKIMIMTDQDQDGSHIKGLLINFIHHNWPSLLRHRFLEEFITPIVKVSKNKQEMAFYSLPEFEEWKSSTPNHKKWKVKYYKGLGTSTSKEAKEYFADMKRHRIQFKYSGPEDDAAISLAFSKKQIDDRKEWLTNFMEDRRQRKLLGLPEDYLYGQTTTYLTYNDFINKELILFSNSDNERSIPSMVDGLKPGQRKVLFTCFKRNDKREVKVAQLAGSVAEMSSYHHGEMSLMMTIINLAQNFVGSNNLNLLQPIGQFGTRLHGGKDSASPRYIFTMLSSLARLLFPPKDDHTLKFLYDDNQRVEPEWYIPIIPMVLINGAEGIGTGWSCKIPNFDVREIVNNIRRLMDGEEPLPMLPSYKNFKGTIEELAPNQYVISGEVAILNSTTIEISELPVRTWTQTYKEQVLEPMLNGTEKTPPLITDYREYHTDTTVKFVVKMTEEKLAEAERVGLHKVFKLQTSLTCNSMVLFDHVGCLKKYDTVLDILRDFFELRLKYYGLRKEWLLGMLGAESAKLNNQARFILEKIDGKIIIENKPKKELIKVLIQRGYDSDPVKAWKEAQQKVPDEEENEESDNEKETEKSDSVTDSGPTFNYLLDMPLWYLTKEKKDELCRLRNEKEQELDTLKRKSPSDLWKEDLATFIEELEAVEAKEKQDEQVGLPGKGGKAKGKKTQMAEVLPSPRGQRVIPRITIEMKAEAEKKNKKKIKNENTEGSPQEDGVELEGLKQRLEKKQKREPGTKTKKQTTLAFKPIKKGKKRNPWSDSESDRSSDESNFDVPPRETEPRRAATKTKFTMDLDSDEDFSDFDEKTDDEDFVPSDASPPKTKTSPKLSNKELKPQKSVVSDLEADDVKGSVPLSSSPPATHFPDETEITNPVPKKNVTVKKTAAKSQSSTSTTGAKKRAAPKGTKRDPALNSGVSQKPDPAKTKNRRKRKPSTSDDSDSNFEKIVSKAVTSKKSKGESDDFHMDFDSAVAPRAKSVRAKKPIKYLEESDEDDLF
Description: A mixture of human Topo II (2 µl), substrate super coiled pHot1 DNA (0.25 µg), 50 µg/ml test compound (2 µl), and assay buffer (4 µl). […] Then, the DNA was run for 1–2 h on 1% agarose gel in BioRad gel electrophoresis system followed by staining with GelRedTM stain for 2 h and destained for 15 min with TAE buffer. The gel was imaged via BioRad’s Gel DocTMEZ system. Both supercoiled and linear strands of DNA were incorporated into the gel as markers for DNA-Topo II intercalators. By using the GraphPad Prism version 5.0, the values of IC50 were calculated. Each reaction was performed in duplicate, and at least three independent determinations of each IC50 were made.

VERO normal cells = assay: Cytotoxicity against VERO normal cell lines; format: cell-based; conditions: for IC50: Chlorocebus sabaeus, VERO normal cells, mean ± SD of three experiments; for fold safer in VERO normal cells compared to breast cancer cell lines (MCF-7): VERO versus MCF-7
Description: The cytotoxicity of these compounds against the cancer cell lines was from 3.41 to 9.51 µM. Derivatives 7b, 7c, 7e and 7g are respectively, 7.88, 10.81, 16.16 and 4.50 fold safer in VERO normal cells compared to breast cancer cell lines (MCF-7, the most sensitive cells).
The cytotoxicity assays were performed at Al-Azhar University, Pharmacology & Toxicology Department, Cairo, Egypt. Cancer cells from different cancer cell lines HCT-116, HepG2 and MCF-7, were purchased from ATCC, Manassas, USA and grown on the appropriate growth medium Roswell Park Memorial Institute medium (RPMI 1640) supplemented with […] of streptomycin, 100 units/mL of penicillin and 10% of heat-inactivated foetal bovine serum in a humidified, 5% (v/v) CO2 atmosphere at 37 °C Cytotoxicity assay by 3-[4,5-dimethylthiazole-2-yl]-2,5-diphenyltetrazolium bromide (MTT).
Cancer cell lines were trypsinized, counted and seeded into 96-well microtiter plates.

[1] = test system: melanoma A375 cancer cells; design: method as in PMID 18513976; conditions: cited from earlier work

CC(=O)c1ccc(Nc2nc3ccccc3n3cnnc23)cc1 [Compound 5, 1-{4-([1,2, 4]Triazolo[4,3-a]quinoxalin-4-ylamino)phenyl}ethan-1-one]
melting point: 171 to 172 °C
IC50 (HepG2): 12.7 ± 0.13 µM
IC50 (HCT116): 11.4 ± 1.4 µM
IC50 (MCF-7): 10.3 ± 1.28 µM

O=C(C=Cc1ccccc1)c1ccc(Nc2nc3ccccc3n3cnnc23)cc1 [Compound 6a, 1-{4-([1,2, 4]Triazolo[4,3-a]quinoxalin-4-ylamino)phenyl}-3-phenylprop-2-en-1-one]
melting point: 275 to 277 °C
IC50 (HepG2): 14.06 ± 0.13 µM
IC50 (HCT116): 11.2 ± 1.2 µM
IC50 (MCF-7): 10.1 ± 1.31 µM

O=C(C=Cc1ccc(Cl)cc1)c1ccc(Nc2nc3ccccc3n3cnnc23)cc1 [Compound 6b, 1-{4-([1,2, 4]Triazolo[4,3-a]quinoxalin-4-ylamino)phenyl}-3–(4-chlorophenyl)prop-2-en-1-one]
melting point: 240 to 243 °C
IC50 (HepG2): 35.2 ± 3.3 µM
IC50 (HCT116): 31.2 ± 1.4 µM
IC50 (MCF-7): 25.8 ± 2.8 µM

O=C(C=Cc1ccc(F)cc1)c1ccc(Nc2nc3ccccc3n3cnnc23)cc1 [Compound 6c, 1-{4-([1,2, 4]Triazolo[4,3-a]quinoxalin-4-ylamino)phenyl}-3–(4-fluorophenyl)prop-2-en-1-one]
melting point: 247 to 249 °C
IC50 (HepG2): 11.3 ± 1.1 µM
IC50 (HCT116): 9.53 ± 0.93 µM
IC50 (MCF-7): 8.61 ± 0.62 µM

O=C(C=Cc1c(Cl)cccc1Cl)c1ccc(Nc2nc3ccccc3n3cnnc23)cc1 [Compound 6d, 1-{4-([1,2, 4]Triazolo[4,3-a]quinoxalin-4-ylamino)phenyl}-3–(2,6-dichlorophenyl)prop-2-en-1-one]
melting point: 260 to 263 °C
IC50 (HepG2): 16.9 ± 1.4 µM
IC50 (HCT116): 19.4 ± 1.7 µM
IC50 (MCF-7): 14.6 ± 1.57 µM

Cc1ccc(C=CC(=O)c2ccc(Nc3nc4ccccc4n4cnnc34)cc2)cc1 [Compound 6e, 1-{4-([1,2, 4]Triazolo[4,3-a]quinoxalin-4-ylamino)phenyl}-3-(p-tolyl)prop-2-en-1-one]
IC50 (DNA): 38 ± 0.4 µM
IC50 (human Topo II): 1.27 ± 0.4 µM
melting point: 245 to 247 °C
IC50 (HepG2): 10.9 ± 1.9 µM
IC50 (HCT116): 10.2 ± 1.7 µM
IC50 (MCF-7): 9.95 µM

COc1ccc(C=CC(=O)c2ccc(Nc3nc4ccccc4n4cnnc34)cc2)cc1 [Compound 6f, 1-{4-([1,2, 4]Triazolo[4,3-a]quinoxalin-4-ylamino)phenyl}-3–(4-methoxyphenyl)prop-2-en-1-one]
melting point: 250 to 253 °C
IC50 (HepG2): 18 ± 1.6 µM
IC50 (HCT116): 16.4 ± 1.7 µM
IC50 (MCF-7): 13.2 ± 1.39 µM

O=C(C=Cc1cccc([N+](=O)[O-])c1)c1ccc(Nc2nc3ccccc3n3cnnc23)cc1 [Compound 6g, 1-{4-([1,2, 4]Triazolo[4,3-a]quinoxalin-4-ylamino)phenyl}-3–(3-nitrophenyl)prop-2-en-1-one]
melting point: 257 to 259 °C
IC50 (HepG2): 17.2 ± 1.5 µM
IC50 (HCT116): 13.7 ± 1.7 µM
IC50 (MCF-7): 12.2 ± 1.03 µM

O=C(C=Cc1ccc([N+](=O)[O-])cc1)c1ccc(Nc2nc3ccccc3n3cnnc23)cc1 [Compound 6h, 1-{4-([1,2, 4]Triazolo[4,3-a]quinoxalin-4-ylamino)phenyl}-3–(4-nitrophenyl)prop-2-en-1-one]
melting point: 261 to 263 °C
IC50 (HepG2): 15.6 ± 1.2 µM
IC50 (HCT116): 12.4 ± 1.1 µM
IC50 (MCF-7): 11.7 ± 1.68 µM

c1ccc(C2CC(c3ccc(Nc4nc5ccccc5n5cnnc45)cc3)=NN2)cc1 (stereo not shown) [Compound 7a, N-{4–(5-Phenyl-4,5-dihydro-1H-pyrazol-3-yl)phenyl}-[1,2, 4]triazolo[4,3-a]quinoxalin-4-amine]
melting point: 150 to 152 °C
IC50 (HepG2): 20.3 ± 1.9 µM
IC50 (HCT116): 18.2 ± 1.6 µM
IC50 (MCF-7): 15.4 ± 1.42 µM

Clc1ccc(C2CC(c3ccc(Nc4nc5ccccc5n5cnnc45)cc3)=NN2)cc1 (stereo not shown) [Compound 7b, N-{4-[5–(4-Chlorophenyl)-4,5-dihydro-1H-pyrazol-3-yl]phenyl}-[1,2, 4]triazolo[4,3-a]quinoxalin-4-amine]
IC50 (VERO normal cells): 46.32 ± 0.2 µM
fold safer in VERO normal cells compared to breast cancer cell lines (MCF-7) (VERO normal cells): 7.88 fold
IC50 (DNA): 32.5 ± 3 µM
IC50 (human Topo II): 1.05 ± 0.4 µM
IC50 (HepG2): 7.46 ± 0.13 µM
IC50 (HCT116): 6.9 ± 0.95 µM
IC50 (MCF-7): 5.88 ± 0.74 µM

Fc1ccc(C2CC(c3ccc(Nc4nc5ccccc5n5cnnc45)cc3)=NN2)cc1 (stereo not shown) [Compound 7c, N-{4-[5–(4-Fluorophenyl)-4,5-dihydro-1H-pyrazol-3-yl]phenyl}-[1,2, 4]triazolo[4,3-a]quinoxalin-4-amine]
IC50 (VERO normal cells): 48.11 ± 0.2 µM
fold safer in VERO normal cells compared to breast cancer cell lines (MCF-7) (VERO normal cells): 10.81 fold
IC50 (DNA): 31.2 ± 2.9 µM
IC50 (human Topo II): 0.94 ± 0.4 µM
IC50 (HepG2): 6.33 ± 0.14 µM
IC50 (HCT116): 6.22 ± 0.63 µM
IC50 (MCF-7): 4.45 ± 0.14 µM

Clc1cccc(Cl)c1C1CC(c2ccc(Nc3nc4ccccc4n4cnnc34)cc2)=NN1 (stereo not shown) [Compound 7d, N-{4-[5–(2,6-Dichlorophenyl)-4,5-dihydro-1H-pyrazol-3-yl]phenyl}-[1,2, 4]triazolo[4,3-a]quinoxalin-4-amine]
melting point: 176 to 178 °C
IC50 (HepG2): 12 ± 1.2 µM
IC50 (HCT116): 10.2 ± 0.22 µM
IC50 (MCF-7): 7.56 ± 0.92 µM

Cc1ccc(C2CC(c3ccc(Nc4nc5ccccc5n5cnnc45)cc3)=NN2)cc1 (stereo not shown) [Compound 7e, N-{4-[5-(p-Tolyl)-4,5-dihydro-1H-pyrazol-3-yl]phenyl}-[1,2, 4]triazolo[4,3-a]quinoxalin-4-amine]
IC50 (VERO normal cells): 55.09 ± 0.16 µM
fold safer in VERO normal cells compared to breast cancer cell lines (MCF-7) (VERO normal cells): 16.16 fold
IC50 (DNA): 29.1 ± 2.2 µM
IC50 (human Topo II): 0.89 ± 0.4 µM
IC50 (HepG2): 6.15 ± 1.2 µM
IC50 (HCT116): 5.75 ± 0.37 µM
IC50 (MCF-7): 3.41 ± 0.43 µM

O=[N+]([O-])c1cccc(C2CC(c3ccc(Nc4nc5ccccc5n5cnnc45)cc3)=NN2)c1 (stereo not shown) [Compound 7f, N-{4-[5–(3-Nitrophenyl)-4,5-dihydro-1H-pyrazol-3-yl]phenyl} -[1,2, 4]triazolo[4,3-a]quinoxalin-4-amine]
melting point: 195 to 197 °C
IC50 (HepG2): 17.3 ± 1.9 µM
IC50 (HCT116): 16.2 ± 1.6 µM
IC50 (MCF-7): 14.5 ± 1.03 µM

O=[N+]([O-])c1ccc(C2CC(c3ccc(Nc4nc5ccccc5n5cnnc45)cc3)=NN2)cc1 (stereo not shown) [Compound 7g, N-{4-[5–(4-Nitrophenyl)-4,5-dihydro-1H-pyrazol-3-yl]phenyl} -[1,2, 4]triazolo[4,3-a]quinoxalin-4-amine]
IC50 (VERO normal cells): 38.77 ± 0.16 µM
fold safer in VERO normal cells compared to breast cancer cell lines (MCF-7) (VERO normal cells): 4.50 fold
IC50 (DNA): 36.5 ± 0.4 µM
IC50 (human Topo II): 1.22 ± 0.4 µM
IC50 (HepG2): 9.51 ± 1.1 µM
IC50 (HCT116): 8.96 ± 0.37 µM
IC50 (MCF-7): 8.62 ± 0.95 µM

COc1cccc2c1C(=O)c1c(O)c3c(c(O)c1C2=O)C[C@@](O)(C(=O)CO)C[C@@H]3O[C@H]1C[C@H](N)[C@H](O)[C@H](C)O1 [Doxorubicin, reference compound]
IC50 (DNA): 31.3 ± 1.8 µM
IC50 (MCF-7): 6.75 ± 0.4 µM

CNc1nc2ccccc2n2c(CCc3ccccc3)cnc12 [EAPB0203]
fold more active than fotemustine [1]: 110 fold
fold more active than imiquimod [1]: 45 fold
